The text below walks through data of patent publication US20210177869A1, “METHODS AND COMBINATIONS FOR MODULATING TOLERANCE TO OPIATES, OPIOIDS OR OPIOID ANALGESICS AND TREATING ACUTE AND CHRONIC PAIN” (CHINA MEDICAL UNIVERSITY, priority 2018, published 2021).

What all share (type): in vivo
The test system of one assay is morphine-dependent mice. Description: Naloxone-precipitated withdrawal jumping in mice with chronic morphine dependence. The settings on record: for naloxone-induced jumping behavior: naloxone 5 mg/kg + SSZ 30 mg/kg or capsazepine 5 mg/kg.
For assay [1], the system named is mice. Description: Opioid tolerance, morphine percent maximal possible effect (% MPE) over 7 days. The following applies: WT mice; for development of tolerance, in comparison to the morphine alone group / number of days of morphine-induced analgesic effect, in comparison to the morphine alone group: co-treatment with morphine 20 mg/kg/day, SSZ 60 mg/kg/day or capsazepine 10 mg/kg/day, twice daily 7 days. The protocol: To test whether system xc^− plays a role in opioid tolerance, WT and xCT KO mice were injected intraperitoneally with morphine twice daily and tested on 7 days continuously for determination of their respective morphine percent maximal possible effect (% MPE). Analgesic effect was expressed as % MPE, where % MPE=(test−baseline latency)/(cutoff−baseline)×100. […] Next, the WT mice were received the co-administration of system xc^− inhibitor, SSZ or capsazepine, and morphine twice daily for one-week observation.

Assay [2] deals with mice. Description: Mechanical allodynia, von Frey filament test. The settings on record: for withdraw threshold in von Frey filament test, compared to vehicle: wild-type mice, SSZ 30 mg/kg/day, morphine 10 mg/kg/day, methadone 5 mg/kg/day or combinations for 8 days; for withdraw threshold in von Frey filament test: WT and xCT KO mice (both genotypes), ip morphine 10 mg/kg/day or methadone 4 mg/kg/day for 7 days. The protocol: (§1) The thermal hyperalgesia was evaluated by placing the mice in a 1000 ml beaker and on the 56±2° C. hot plate with the maximum of 35 second to prevent tissue damage. The time is recorded when the mice jumps on to the edge of the beaker, the value is considered as the withdrawal threshold. A customized transparent acrylic chamber with the size of 20×20×20 cm and 5 mm thick acrylic with 2 mm diameter holes throughout the entire platform is used to determine the mechanical allodynia and thermal hyperalgesia. Mice were placed in the chamber to evaluate the mechanical allodynia by applying a 0.6 g pressure von Frey hair (Touch-Test Sensory Evaluator, North Coast Medical, Inc) to the hind paws of the mice for five times with a five second interval. If the mice hind paw is withdrawn from the platform over three times, the pressure of the von Frey hair will be recorded and regarded as the withdrawal threshold.

In assay [3] the test system is mice. Description: Thermal hyperalgesia, hot plate test. The settings on record: for latencies of the first sign of pain in the hot-plate test, compared to vehicle: wild-type mice, SSZ 30 mg/kg/day, morphine 10 mg/kg/day, methadone 5 mg/kg/day or combinations for 8 days; for latency of first sign of pain in the hot-plate test: WT and xCT KO mice (both genotypes), ip morphine 10 mg/kg/day or methadone 4 mg/kg/day for 7 days; for analgesic effect in xCT KO mice compared to WT mice: hot plate and von Frey tests, morphine 10 mg/kg/day or methadone 4 mg/kg/day for 7 days. How it is done: as §1

Assay [4] has as its system mice. Description: Opioid-induced constipation, fecal collection and stool weight. The following applies: wild-type mice; SSZ 30 mg/kg, morphine 10 mg/kg or combination, ip, 7 days. The protocol: Fecal collections and the stool weighed were recorded before and after morphine and/or SSZ administration. The fecal was collected every two days.
Opioid-induced constipation is a side effect for using opioid pain relief medication.

Description for morphine-dependent mice: Chronic morphine dependence was induced by repeated injections for four consecutive days with an escalating dose schedule. Mice received morphine twice daily (morning and afternoon) for 4 days (day 1: 12 mg/kg and 25 mg/kg; day 2: 25 mg/kg and 50 mg/kg; day 3: 50 mg/kg and 75 mg/kg; day 4: 75 mg/kg and 100 mg/kg). On the testing day (day 5), a final morphine dose (50 mg/kg) was administered before exam.
A single dose of naloxone (5 mg/kg) was administered to all mice 60 mins after the final morphine dose. Immediately, following with naloxone injection, animals were placed into individual Plexiglas observation cylinders. Withdrawal jumping response symptoms were recorded and the frequency of jumps for each mouse was summed over one hour.
It was first determined whether system xc^− contributes to opioid dependence. WT and xCT KO mice were received the repeated injections for four consecutive days with an escalating dose schedule for the induction of chronic morphine dependence. Mice received morphine twice daily (morning and afternoon) for 4 days (day 1: 12 mg/kg and 25 mg/kg; day 2: 25 mg/kg and 50 mg/kg; day 3: 50 mg/kg and 75 mg/kg; day 4: 75 mg/kg and 100 mg/kg). On the testing day (day 5), a final morphine dose (50 mg/kg) was administered before naloxone-induced acute withdrawal syndromes. […] To observe the effect of system xc^− inhibits in opioid withdrawal, mice with chronic morphine dependence were randomly divided into the following groups (sample size N=6 in each group): group 1: control mice without any treatment; group 2: morphine-dependent mice with vehicle treatment; group 3: morphine-dependent mice with naloxone (5 mg/kg) treatment; group 4: morphine-dependent mice with naloxone (5 mg/kg)+methadone (10 mg/kg) treatment; group 5: morphine-dependent mice with naloxone (5 mg/kg)+SSZ (30 mg/kg) treatment; and group 6: morphine-dependent mice with naloxone (5 mg/kg)+capsazepine (5 mg/kg).

With `Oc1cc2c(cc1O)CN(C(=S)NCCc1ccc(Cl)cc1)CCC2` [capsazepine], the naloxone-induced jumping behavior result with morphine-dependent mice is “inhibited naloxone-induced jumping behavior”. Moreover, in the assay on mice [1], the “development of tolerance, in comparison to the morphine alone group” value was “significantly attenuated the development of tolerance” and the “number of days of morphine-induced analgesic effect, in comparison to the morphine alone group” value is “prolong the number of days of morphine-induced analgesic effect”.

In the case of `C=CCN1CC[C@]23c4c5ccc(O)c4O[C@H]2C(=O)CC[C@@]3(O)[C@H]1C5` [naloxone], the “jumping behavior (withdrawal)” value in the assay with morphine-dependent mice (naloxone 5 mg/kg, observed one hour) is on record as “significant jumping behavior compared to other groups”.

In the case of `O=C(O)c1cc(/N=N/c2ccc(S(=O)(=O)Nc3ccccn3)cc2)ccc1O` [SSZ, sulfasalazine], the “withdraw threshold in von Frey filament test, compared to vehicle” value (“withdraw threshold … compared to vehicle” for short) in the assay on mice [2] was “more than those in vehicle-treated mice”. Besides, the “latencies of the first sign of pain in the hot-plate test, compared to vehicle” value (shortened to “latencies … compared to vehicle”) with mice [3] is reported as “more than those in vehicle-treated mice”. Further, the naloxone-induced jumping behavior entry in the assay with morphine-dependent mice is recorded as “inhibited naloxone-induced jumping behavior”. The “opioid-induced constipation / defecation (stool weight)” value with mice [4] is “didn't decreased or increased defecation”. In addition, in the assay with mice [1], the “development of tolerance, in comparison to the morphine alone group” value is reported as “significantly attenuated the development of tolerance” and the “number of days of morphine-induced analgesic effect, in comparison to the morphine alone group” value is “prolong the number of days of morphine-induced analgesic effect”.

Take `CCC(=O)C(CC(C)N(C)C)(c1ccccc1)c1ccccc1` (stereo not shown) [methadone]: in the assay on mice [2], the “withdraw threshold in von Frey filament test” value is on record as “significantly increased” and the “withdraw threshold … compared to vehicle” value is listed as “more than those in vehicle-treated mice”. In the assay on mice [3], the “latency of first sign of pain in the hot-plate test” value is recorded as “significantly increased”; the “analgesic effect in xCT KO mice compared to WT mice” value is recorded as “higher than that in WT mice”; the “latencies … compared to vehicle” value is given as “more than those in vehicle-treated mice”.

Take `CN1CC[C@]23c4c5ccc(O)c4O[C@H]2[C@@H](O)C=C[C@H]3[C@H]1C5` [morphine]: in the assay with mice [2], the “withdraw threshold in von Frey filament test” value is on record as “significantly increased” and the “withdraw threshold … compared to vehicle” value is listed as “more than those in vehicle-treated mice”. Also, in the assay on mice [3], the “latency of first sign of pain in the hot-plate test” value is recorded as “significantly increased”; the “analgesic effect in xCT KO mice compared to WT mice” value was “higher than that in WT mice”; the “latencies … compared to vehicle” value is “more than those in vehicle-treated mice”. Besides, the “opioid-induced constipation / defecation (stool weight)” value in the assay with mice [4] is reported as “developed the opioid-induced constipation”. Further, the “opioid tolerance (% MPE)” value with mice [1] (morphine 20 mg/kg/day ip twice daily, 7 days) is “significant opioid tolerance on day 3”.
